{"source": "PubChem BioAssay (NCI)", "assay_in_all_cases": "NCI-60 cell line screen, 48 h", "key": {"[1]": {"system": "CAKI-1 renal"}, "[2]": {"system": "EKVX NSCLC"}, "[3]": {"system": "SNB-19 CNS"}, "[4]": {"system": "SF-539 CNS"}, "[5]": {"system": "U251 CNS"}, "[6]": {"system": "OVCAR-5 ovarian"}, "[7]": {"system": "786-0 renal"}, "[8]": {"system": "OVCAR-8 ovarian"}, "[9]": {"system": "SF-295 CNS"}, "[10]": {"system": "KM12 colon"}, "[11]": {"system": "HCT-116 colon"}, "[12]": {"system": "MDA-MB-435"}, "[13]": {"system": "HOP-62 NSCLC"}, "[14]": {"system": "NCI-H23 lung"}, "[15]": {"system": "UO-31 renal"}, "[16]": {"system": "MDA-MB-468 breast"}, "[17]": {"system": "DU-145 prostate"}, "[18]": {"system": "PC-3 prostate"}, "[19]": {"system": "OVCAR-4 ovarian"}, "[20]": {"system": "RXF 393 renal"}, "[21]": {"system": "SK-MEL-2 melanoma"}, "[22]": {"system": "HCT-15 colon"}, "[23]": {"system": "NCI-H226 lung"}, "[24]": {"system": "RPMI-8226 leukemia"}, "[25]": {"system": "MCF7 breast"}, "[26]": {"system": "SK-MEL-5 melanoma"}, "[27]": {"system": "MDA-MB-231 breast"}, "[28]": {"system": "HS 578T breast"}, "[29]": {"system": "SW-620 colon"}, "[30]": {"system": "OVCAR-3 ovarian"}, "[31]": {"system": "ACHN renal"}, "[32]": {"system": "T-47D breast"}, "[33]": {"system": "SK-MEL-28 melanoma"}, "[34]": {"system": "MOLT-4 leukemia"}, "[35]": {"system": "MALME-3M melanoma"}, "[36]": {"system": "COLO 205 colon"}, "[37]": {"system": "HCC-2998 colon"}, "[38]": {"system": "A498 renal"}, "[39]": {"system": "SN12C renal"}, "[40]": {"system": "SK-OV-3 ovarian"}, "[41]": {"system": "HL-60(TB) leukemia"}, "[42]": {"system": "LOX IMVI melanoma"}, "[43]": {"system": "A549 NSCLC"}, "[44]": {"system": "SNB-75 CNS"}, "[45]": {"system": "K-562 leukemia"}, "[46]": {"system": "HOP-92 NSCLC"}, "[47]": {"system": "M14 melanoma"}, "[48]": {"system": "SR leukemia"}, "[49]": {"system": "IGROV1 ovarian"}, "[50]": {"system": "UACC-62 melanoma"}, "[51]": {"system": "TK-10 renal"}, "[52]": {"system": "UACC-257 melanoma"}, "[53]": {"system": "SF-268 CNS"}, "[54]": {"system": "CCRF-CEM leukemia"}}, "note": "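Exposure lasted 48 hours, with cells grown in 96-well plates and compounds tested at five concentrations. Abbreviation: GI50, concentration required for 50% inhibition of growth. TGI: total growth inhibition.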"}
{"molecule": "O=C1Nc2cc(Cl)ccc2/C1=C/c1cccc(OCc2ccc(Br)cc2F)c1", "values": [{"measurement": "GI50", "setting": "[1]", "result": 2.54, "unit": "µM"}, {"measurement": "TGI", "setting": "[1]", "result": 13.9, "unit": "µM"}, {"measurement": "GI50", "setting": "[2]", "result": 3.23, "unit": "µM"}, {"measurement": "TGI", "setting": "[2]", "result": "> 100", "unit": "µM"}, {"measurement": "GI50", "setting": "[3]", "result": 3.9, "unit": "µM"}, {"measurement": "TGI", "setting": "[3]", "result": "> 100", "unit": "µM"}, {"measurement": "GI50", "setting": "[4]", "result": 1.99, "unit": "µM"}, {"measurement": "TGI", "setting": "[4]", "result": 4.34, "unit": "µM"}, {"measurement": "GI50", "setting": "[5]", "result": 3.79, "unit": "µM"}, {"measurement": "TGI", "setting": "[5]", "result": "> 100", "unit": "µM"}, {"measurement": "GI50", "setting": "[6]", "result": 8.48, "unit": "µM"}, {"measurement": "TGI", "setting": "[6]", "result": "> 100", "unit": "µM"}, {"measurement": "GI50", "setting": "[7]", "result": 3.79, "unit": "µM"}, {"measurement": "TGI", "setting": "[7]", "result": "> 100", "unit": "µM"}, {"measurement": "GI50", "setting": "[8]", "result": 4.32, "unit": "µM"}, {"measurement": "TGI", "setting": "[8]", "result": "> 100", "unit": "µM"}, {"measurement": "GI50", "setting": "[9]", "result": 3.16, "unit": "µM"}, {"measurement": "TGI", "setting": "[9]", "result": 14.9, "unit": "µM"}, {"measurement": "GI50", "setting": "[10]", "result": 3.65, "unit": "µM"}, {"measurement": "TGI", "setting": "[10]", "result": 41, "unit": "µM"}, {"measurement": "GI50", "setting": "[11]", "result": 3.1, "unit": "µM"}, {"measurement": "TGI", "setting": "[11]", "result": "> 100", "unit": "µM"}, {"measurement": "GI50", "setting": "[12]", "result": 1.82, "unit": "µM"}, {"measurement": "TGI", "setting": "[12]", "result": 3.41, "unit": "µM"}, {"measurement": "GI50", "setting": "[13]", "result": 4.02, "unit": "µM"}, {"measurement": "TGI", "setting": "[13]", "result": 34.2, "unit": "µM"}, {"measurement": "GI50", "setting": "[14]", "result": 3.88, "unit": "µM"}, {"measurement": "TGI", "setting": "[14]", "result": "> 100", "unit": "µM"}, {"measurement": "GI50", "setting": "[15]", "result": 2.05, "unit": "µM"}, {"measurement": "TGI", "setting": "[15]", "result": "> 100", "unit": "µM"}, {"measurement": "GI50", "setting": "[16]", "result": 2.43, "unit": "µM"}, {"measurement": "TGI", "setting": "[16]", "result": 8.88, "unit": "µM"}, {"measurement": "GI50", "setting": "[17]", "result": 5.97, "unit": "µM"}, {"measurement": "TGI", "setting": "[17]", "result": "> 100", "unit": "µM"}, {"measurement": "GI50", "setting": "[18]", "result": 3.89, "unit": "µM"}, {"measurement": "TGI", "setting": "[18]", "result": "> 100", "unit": "µM"}, {"measurement": "GI50", "setting": "[19]", "result": 3.55, "unit": "µM"}, {"measurement": "TGI", "setting": "[19]", "result": 47.2, "unit": "µM"}, {"measurement": "GI50", "setting": "[20]", "result": 4.47, "unit": "µM"}, {"measurement": "TGI", "setting": "[20]", "result": 50.4, "unit": "µM"}, {"measurement": "GI50", "setting": "[21]", "result": 2.16, "unit": "µM"}, {"measurement": "TGI", "setting": "[21]", "result": 5.35, "unit": "µM"}, {"measurement": "GI50", "setting": "[22]", "result": 2.67, "unit": "µM"}, {"measurement": "TGI", "setting": "[22]", "result": 12.3, "unit": "µM"}, {"measurement": "GI50", "setting": "[23]", "result": 3.09, "unit": "µM"}, {"measurement": "TGI", "setting": "[23]", "result": "> 100", "unit": "µM"}, {"measurement": "GI50", "setting": "[24]", "result": 2.35, "unit": "µM"}, {"measurement": "TGI", "setting": "[24]", "result": 12.6, "unit": "µM"}, {"measurement": "GI50", "setting": "[25]", "result": 0.642, "unit": "µM"}, {"measurement": "TGI", "setting": "[25]", "result": 27.8, "unit": "µM"}, {"measurement": "GI50", "setting": "[26]", "result": 3.03, "unit": "µM"}, {"measurement": "TGI", "setting": "[26]", "result": 10.9, "unit": "µM"}, {"measurement": "GI50", "setting": "[27]", "result": 2.63, "unit": "µM"}, {"measurement": "TGI", "setting": "[27]", "result": 12.5, "unit": "µM"}, {"measurement": "GI50", "setting": "[28]", "result": 2.17, "unit": "µM"}, {"measurement": "TGI", "setting": "[28]", "result": 5.82, "unit": "µM"}, {"measurement": "GI50", "setting": "[29]", "result": 2.89, "unit": "µM"}, {"measurement": "TGI", "setting": "[29]", "result": "> 100", "unit": "µM"}, {"measurement": "GI50", "setting": "[30]", "result": 2.53, "unit": "µM"}, {"measurement": "TGI", "setting": "[30]", "result": 7.82, "unit": "µM"}, {"measurement": "GI50", "setting": "[31]", "result": 3.94, "unit": "µM"}, {"measurement": "TGI", "setting": "[31]", "result": "> 100", "unit": "µM"}, {"measurement": "GI50", "setting": "[32]", "result": 3.67, "unit": "µM"}, {"measurement": "TGI", "setting": "[32]", "result": "> 100", "unit": "µM"}, {"measurement": "GI50", "setting": "[33]", "result": 4.47, "unit": "µM"}, {"measurement": "TGI", "setting": "[33]", "result": 24.1, "unit": "µM"}, {"measurement": "GI50", "setting": "[34]", "result": 2.92, "unit": "µM"}, {"measurement": "TGI", "setting": "[34]", "result": 9.41, "unit": "µM"}, {"measurement": "GI50", "setting": "[35]", "result": 4.15, "unit": "µM"}, {"measurement": "TGI", "setting": "[35]", "result": 20.9, "unit": "µM"}, {"measurement": "GI50", "setting": "[36]", "result": 3.42, "unit": "µM"}, {"measurement": "TGI", "setting": "[36]", "result": "> 100", "unit": "µM"}, {"measurement": "GI50", "setting": "[37]", "result": 3.71, "unit": "µM"}, {"measurement": "TGI", "setting": "[37]", "result": "> 100", "unit": "µM"}, {"measurement": "GI50", "setting": "[38]", "result": 7.92, "unit": "µM"}, {"measurement": "TGI", "setting": "[38]", "result": 57.2, "unit": "µM"}, {"measurement": "GI50", "setting": "[39]", "result": 4.11, "unit": "µM"}, {"measurement": "TGI", "setting": "[39]", "result": "> 100", "unit": "µM"}, {"measurement": "GI50", "setting": "[40]", "result": 14.6, "unit": "µM"}, {"measurement": "TGI", "setting": "[40]", "result": "> 100", "unit": "µM"}, {"measurement": "GI50", "setting": "[41]", "result": 1.85, "unit": "µM"}, {"measurement": "TGI", "setting": "[41]", "result": 4.53, "unit": "µM"}, {"measurement": "GI50", "setting": "[42]", "result": 2.49, "unit": "µM"}, {"measurement": "TGI", "setting": "[42]", "result": 8.24, "unit": "µM"}, {"measurement": "GI50", "setting": "[43]", "result": 4.66, "unit": "µM"}, {"measurement": "TGI", "setting": "[43]", "result": "> 100", "unit": "µM"}, {"measurement": "GI50", "setting": "[44]", "result": 1.83, "unit": "µM"}, {"measurement": "TGI", "setting": "[44]", "result": 5.11, "unit": "µM"}, {"measurement": "GI50", "setting": "[45]", "result": 2.67, "unit": "µM"}, {"measurement": "TGI", "setting": "[45]", "result": 8.56, "unit": "µM"}, {"measurement": "GI50", "setting": "[46]", "result": 2.33, "unit": "µM"}, {"measurement": "TGI", "setting": "[46]", "result": 12.4, "unit": "µM"}, {"measurement": "GI50", "setting": "[47]", "result": 2.17, "unit": "µM"}, {"measurement": "TGI", "setting": "[47]", "result": 5.71, "unit": "µM"}, {"measurement": "GI50", "setting": "[48]", "result": 2.15, "unit": "µM"}, {"measurement": "TGI", "setting": "[48]", "result": 5.07, "unit": "µM"}, {"measurement": "GI50", "setting": "[49]", "result": 2.71, "unit": "µM"}, {"measurement": "TGI", "setting": "[49]", "result": 97.7, "unit": "µM"}, {"measurement": "GI50", "setting": "[50]", "result": 2.49, "unit": "µM"}, {"measurement": "TGI", "setting": "[50]", "result": 8.8, "unit": "µM"}, {"measurement": "GI50", "setting": "[51]", "result": 14.3, "unit": "µM"}, {"measurement": "TGI", "setting": "[51]", "result": "> 100", "unit": "µM"}, {"measurement": "GI50", "setting": "[52]", "result": 8.5, "unit": "µM"}, {"measurement": "TGI", "setting": "[52]", "result": "> 100", "unit": "µM"}, {"measurement": "GI50", "setting": "[53]", "result": 3.33, "unit": "µM"}, {"measurement": "TGI", "setting": "[53]", "result": "> 100", "unit": "µM"}, {"measurement": "GI50", "setting": "[54]", "result": 2.91, "unit": "µM"}, {"measurement": "TGI", "setting": "[54]", "result": 10.9, "unit": "µM"}]}
